Source: patent publication US20260355199A1, “COMPOSITIONS AND METHODS FOR TREATING OR PREVENTING NONALCOHOLIC STEATOHEPATITIS (NASH), ANOREXIA, DEPRESSION, ENDOMETRIOSIS, AND OTHER DISEASES OR DISORDERS” (priority 2022, published 2026)
Entries after “also recorded” stand apart in the source; their conditions may differ.

Legend:
[1] = system: HT-22 mouse hippocampal neuronal cells; test: DNA 5hmC level in HT-22 hippocampal neuronal cells; type: cell-based; conditions: 10 μM, 24 h
Excerpt: It was not unprecedented that compounds initially developed as protein function inhibitors were later serendipitously found to be protein degraders (Bekes, M. et al., 2022, Nature Reviews Drug Discovery, 21(3):181-200).

AGRP in the ARC = test: AGRP expression and feeding of chow-fed mice given Bobcat339 in drinking water; type: in vivo, mouse
Excerpt: It has previously been shown that TET3 expression is aberrantly elevated in the livers of humans and mice with type 2 diabetes and that liver-specific, siRNA-mediated TET3 knockdown improves glucose homeostasis both in dietary and genetic mouse models of diabetes (Li D. et al., 2020, Nature Communications, 11:342). Bobcat339 (4-Amino-1-[1,1′-biphenyl]-3-yl-5-chloro-2(1H)-pyrimidinone) is a synthetic cytosine derivative capable of binding competitively with 5mC to the active sites of [COMPOUND LEFT OUT] and inhibits their enzymatic activity in cultured neuronal cells (Chua G. N. L. et al., 2019, ACS Medicinal Chemistry Letters, 10:180-185). Although not bound by any particular theory, it was hypothesized that Bobcat339 has an anti-diabetic effect owing to its ability to inhibit [COMPOUND LEFT OUT]. Thus, the present studies employed high fat diet (HFD)-induced diabetic mice that were treated with Bobcat339 in drinking water for two weeks. […] Thus, nondiabetic mice fed on regular chow were treated with Bobcat339 in drinking water. Four days later, ARCs were isolated from ad libitum-fed mice and analyzed. […]
Immunofluorescence Postfixed sections were cut into 40 μm-thick sections. […] The sections were coverslipped and visualized using a Keyence BZ-X700 fluorescence microscope. The fluorescence signals from GFP and mCherry in AgRP neurons were detected without immunostaining. […]

[2] = Liver toxicity (plasma ALT, AST, bilirubin) in endometriosis mice; type: in vivo, mouse; conditions: 6 weeks; for liver toxicity (plasma ALT, AST, bilirubin): 2.5 mg/kg i.p. once a week
Description: Blood samples were collected in EDTA tubes (Microtainer with K2EDTA, BD, 365974) by cardiac puncture of terminally anesthetized animals. The tubes were centrifuged at 2,000×g at 4 °C for 20 min, and plasma was collected and stored at −80 °C until use. Blood chemistry were measured according to the manufacturer's instructions. Kits used to measure alanine transaminase (EALT-100) and aspartate transaminase (EASTR-100) were purchased from Bioassay Systems. The bilirubin assay kit (MAK126) was purchased from Sigma Aldrich.

TET2 = TET2 protein in human MDMs; type: cell-based; conditions: 24 h
Description: Bobcat339 Treatment of Cultured Cells Bobcat339 powder (Sigma-Aldrich, SML2611) was freshly dissolved in DMSO at a concentration of 5 mM and filtered through a 0.22 micron. Cells grown at a density of 80-90% were incubated in growth media with vehicle (DMSO) or Bobcat339 at a final concentration of 10 μM for 24 h, followed by RNA and protein extraction.
For cultured MDMs, cells were primed with CM-Endo or TGF-β1 (PeproTech, 100-21) for 36-48 h (to increase TET3 expression) before Bobcat339 treatment.
Cells were homogenized in situ using a pipette tip in 2×SDS-sample buffer with 10% β-mercaptoethanol at RT followed by heating at 100 °C for 5 min with occasional vortexing. The samples were loaded onto a 4-15% gradient SDS gel (Bio-rad, 456-8086) (10 μL/well) and transferred to nitrocellulose membranes, followed by Western blot analysis. The antibodies used were anti-TET3 (diluted at 1:1000, GeneTex, GTX121453 for human; diluted at 1:1000, Active Motif, 61395 for mouse), anti-TET2 (diluted at 1:1000, Proteintech, 21207-1-AP for human/mouse), anti-TGF-β1 (diluted at 1:1000, Abcam, ab215715 for human), anti-Lin28A (diluted at 1:1000, Cell Signaling, 3978S), and HRP-conjugated anti-GAPDH (dilution 1:5000; Proteintech, HRP-60004). The secondary antibody was HRP-linked Anti-rabbit IgG (dilution 1:10,000; Rockland, 611-1322).

## Nc1nc(=O)n(-c2cccc(-c3ccccc3)c2)cc1Cl [Bobcat339, 4-Amino-1-[1,1′-biphenyl]-3-yl-5-chloro-2(1H)-pyrimidinone]
[1]
  DNA 5hmC levels: decreased DNA 5hmC levels
AGRP in the ARC; Bobcat339 100 mg/kg per day in drinking water, 4 days, 100 mg/kg/day
  AGRP expression in the ARC: increased AGRP expression in the ARC; also recorded: increased AGRP peptide; also recorded: increased AGRP production
AGRP in the ARC; mice exposed to Bobcat339
  feeding: induced hyperphagia
[2]
  liver toxicity (plasma ALT, AST, bilirubin): no evidence of liver toxicity; also recorded: no differences between the groups
[2]; listed as Bobcat
  liver toxicity (plasma ALT, AST, bilirubin): no differences between the groups
[2]; 3 mg/kg i.p. once a week
  liver toxicity: no evidence of liver toxicity
TET2; 10 μM
  TET2 protein level: not affected; also recorded: not TET2
TET2; 10 mM (so in the source)
  TET2 protein level: not significantly affected
